The results in this text go back to patent US4014875A, “Process of making di or tribromomethanesulfonamides” (The Dow Chemical Company, priority 1975, dated 1977).

In brackets after ≈: the same amount, converted by molar mass.

Format in all cases: cell-based
For experiment [1], the system named is T, mentagrophytes. The experiment can be described thus: agar dilution test, growth inhibition of T, mentagrophytes. As to conditions: Tm = T, 100% growth inhibition (kills), read-out: Minimum Growth Inhibitory Concentration. As to the method:
(§1) In representative operations, compounds of the present invention were tested for their activity as antimicrobials using conventional agar dilution tests. The following Table presents results, expressed as concentration of toxicant in parts per million to achieve 100% growth inhibition (kills) of the indicated organisms.
On the technique in general: Agar dilution tests growth on a series of plates holding different concentrations.

In experiment [2] the test system is S. typhosa. The experiment can be described thus: agar dilution test, growth inhibition of S. typhosa. As to conditions: St = S. typhosa; 100% growth inhibition (kills); read-out: Minimum Growth Inhibitory Concentration. As to the method:
as §1

The test system of experiment [3] is Cephaloascus fragans. Description: agar dilution test, growth inhibition of Cephaloascus fragans. The note with it: Cf = Cephaloascus fragans; 100% growth inhibition (kills); read-out: Minimum Growth Inhibitory Concentration. As to the method:
as §1

Experiment [4] has as its system P. aeruginosa. The experiment can be described thus: agar dilution test, growth inhibition of P. aeruginosa. As to conditions: Pseudomonas aeruginosa; Pa = P. aeruginosa; 100% growth inhibition (kills); read-out: Minimum Growth Inhibitory Concentration. As to the method:
as §1

Experiment [5] deals with Trichoderm Sp. Madison P-42. The experiment can be described thus: agar dilution test, growth inhibition of Trichoderm Sp. Madison P-42. As to conditions: Ts = Trichoderm Sp. Madison P-42; 100% growth inhibition (kills); read-out: Minimum Growth Inhibitory Concentration. As to the method:
as §1

The test system of experiment [6] is B. subtilis. The experiment can be described thus: agar dilution test, growth inhibition of B. subtilis. More on the design: key to Minimum Growth Inhibitory Concentration: *: 50% control at 500 ppm. As to conditions: Bs = B. subtilis, 100% growth inhibition (kills); for MIC: Bacillus subtilis, read-out: Minimum Growth Inhibitory Concentration. As to the method:
as §1

The subject of experiment [7] is C. albicans. Description: agar dilution test, growth inhibition of C. albicans. As to conditions: Candida albicans; Ca = C. albicans; 100% growth inhibition (kills); read-out: Minimum Growth Inhibitory Concentration. As to the method: as §1
The test system of experiment [8] is R. nigricans. Description: agar dilution test, growth inhibition of R. nigricans. The note with it: Rhizopus stolonifer; Rn = R. nigricans; 100% growth inhibition (kills); read-out: Minimum Growth Inhibitory Concentration. As to the method: as §1
The test system of experiment [9] is C. pelliculosa. The experiment can be described thus: agar dilution test, growth inhibition of C. pelliculosa. As to conditions: Hansenula anomala; Cp = C. pelliculosa; 100% growth inhibition (kills); read-out: Minimum Growth Inhibitory Concentration. As to the method: as §1
The test system of experiment [10] is P. pullulans. Description: agar dilution test, growth inhibition of P. pullulans. The note with it: Pp = P. pullulans; 100% growth inhibition (kills); read-out: Minimum Growth Inhibitory Concentration. As to the method: as §1
Experiment [11] deals with Ceratocystis ips. The experiment can be described thus: agar dilution test, growth inhibition of Ceratocystis ips. As to conditions: Ci = Ceratocystis ips; 100% growth inhibition (kills); read-out: Minimum Growth Inhibitory Concentration. As to the method: as §1
Experiment [12] relates to A. terreus. The experiment can be described thus: agar dilution test, growth inhibition of A. terreus. As to conditions: Aspergillus terreus; At = A. terreus; 100% growth inhibition (kills); read-out: Minimum Growth Inhibitory Concentration. As to the method: as §1
The test system of experiment [13] is S. aureus. Description: agar dilution test, growth inhibition of S. aureus. The note with it: Staphylococcus aureus; Sa = S. aureus; 100% growth inhibition (kills); read-out: Minimum Growth Inhibitory Concentration. As to the method:
as §1

Experiment [14] deals with M. phlei. The experiment can be described thus: agar dilution test, growth inhibition of M. phlei. As to conditions: Mycolicibacterium phlei; Mp = M. phlei; 100% growth inhibition (kills); read-out: Minimum Growth Inhibitory Concentration. As to the method:
as §1

For the compound `CC1CN(S(=O)(=O)C(Br)Br)CC(C)O1` (stereo not shown) [1 (b), 2,6-Dimethyl-4-((dibromomethyl)sulfonyl)morpholine], the MIC is 500 µg/mL (≈ 1420 µM) in [1]; over 500 µg/mL in experiment [2]; 500 µg/mL (≈ 1420 µM) in [3]; over 500 µg/mL in experiment [4]; over 500 µg/mL in [5]; 500 µg/mL (≈ 1420 µM) in [7]. The MIC is 500 µg/mL (≈ 1420 µM) in experiment [8]; 500 µg/mL (≈ 1420 µM) in experiment [9]; 500 µg/mL (≈ 1420 µM) in experiment [10]; over 500 µg/mL in [11]; 500 µg/mL (≈ 1420 µM) in [12]; over 500 µg/mL in experiment [13]. Further, the MIC in experiment [14] was over 500 µg/mL. Also, in experiment [6], the “Minimum Growth Inhibitory Concentration” value is recorded as “*”.

Regarding `CC1CN(S(=O)(=O)C(Br)(Br)Br)CC(C)O1` (stereo not shown) [1 (a), 2,6-Dimethyl-4-((tribromomethyl)sulfonyl)morpholine], the MIC in experiment [1], in experiment [3], in [4], in [5], in [6] and in experiment [7] was 100 µg/mL (≈ 233 µM) throughout. Moreover, the MIC in experiment [8] was found to be 100 µg/mL (≈ 233 µM); in experiment [9] it was 100 µg/mL (≈ 233 µM); in [10], 100 µg/mL (≈ 233 µM); in [11] it was 100 µg/mL (≈ 233 µM); in experiment [12] it was 10 µg/mL (≈ 23.3 µM); in experiment [13], 500 µg/mL (≈ 1160 µM). In addition, in experiment [14], the MIC was found to be 100 µg/mL (≈ 233 µM).

As to `O=S(=O)(N1CCOCC1)C(Br)(Br)Br` [2 (b)], the MIC in [1], in [3], in experiment [4], in experiment [5], in [6] and in experiment [7] was 100 µg/mL (≈ 249 µM) each time. Further, the MIC in [8] came out at 100 µg/mL (≈ 249 µM); in experiment [9], 100 µg/mL (≈ 249 µM); in [10] it was 100 µg/mL (≈ 249 µM); in [11], 100 µg/mL (≈ 249 µM); in experiment [12], 100 µg/mL (≈ 249 µM); in [13], 500 µg/mL (≈ 1240 µM). In addition, the MIC in [14] was determined as 100 µg/mL (≈ 249 µM).
